The text below walks through data of patent publication US20070093548A1 (Wyeth, priority 2005, published 2007).

As usually defined, the IC50 is the midpoint of a concentration-inhibition curve. The term melting point denotes the temperature, or range, at which the solid turns liquid. The term inhibition denotes the relative decrease from the control value, in per cent.

Like-named read-outs stand apart in the source and are kept apart here.

Data set [1] relates to alkaline phosphatase activity in T47D cells. The data set can be described thus: T47D Cell Alkaline Phosphatase Assay. The format is cell-based, human. To be noted: antagonist mode, in the presence of 1 nM progesterone, read-out: Example 18A 'T47D Cell Alkaline Phosphatase Assay' IC50. Here is the method:
A. Effects of Progestins and Antiprogestins on Alkaline Phosphatase Activity in T47D Cells—T47D Cell Alkaline Phosphatase Assay
The purpose of this assay is to identify progestins or antiprogestins by determining a compound's effect on alkaline phosphatase activity in T47D cells. The materials and methods are as follows.
Culture medium: DMEM:F12 (1:1) (GIBCO, BRL) supplemented with 5% (v/v) charcoal stripped fetal bovine serum (not heat-inactivated), 100 U/ml penicillin, 100 ug/ml streptomycin, and 2 mM GlutaMax (GIBCO, BRL).
Alkaline phosphatase assay buffer:
I. 0.1M Tris-HCl, pH 9.8, containing 0.2% Triton X-100
II. 0.1M Tris-HCl, pH 9.8, containing 4 mM p-nitrophenyl phosphate (Sigma).
Frozen T47D cells are thawed in a 37° C. water bath and diluted to 280,000 cells/ml in culture medium. To each well in a 96-well plate (Falcon, Becton Dickinson Labware), 180 μl of diluted cell suspension is added. 20 μl of reference or test compounds diluted in the culture medium is then added to each well. […] The cells are incubated at 37° C. in a 5% CO2/humidified atmosphere for 24 hours. NOTE: For high throughput screening, one concentration of each compound is tested at 0.3 μg/ml. Based on an average molecular weight of 300 g/mol for the compounds in the library, the concentration is approximately 1 μM.
At the end of treatment, the medium is removed from the plate. 50 μl of assay buffer I is added to each well. The plates are shaken in a titer plate shaker for 15 min. Then 150 μl of assay buffer II is added to each well.
Subsequent dose response data for screening hits will be evaluated as described below. Analysis of dose-response data. For reference and test compounds, a dose response curve is generated for dose (X-axis) vs. the rate of enzyme reaction (slope) (Y-axis). Square root-transformed data are used for analysis of variance and nonlinear dose response curve fitting for both agonist and antagonist modes. Huber weighting is used to downweight the effects of outliers. EC50 or IC50 values are calculated from the retransformed values.
Percent (%) of induction for agonists at the tested concentrations. […] The default concentration is in the nM range.

Data set [2] addresses T1, progesterone receptor (PR) (Homo sapiens, UniProt P06401).
T1 construct: in live, intact (whole) cells, using the human breast carcinoma T47D cell line; endogenous in cells; host or cells: T47D human breast carcinoma cells (live, intact)
T1 sequence (P06401 1-933): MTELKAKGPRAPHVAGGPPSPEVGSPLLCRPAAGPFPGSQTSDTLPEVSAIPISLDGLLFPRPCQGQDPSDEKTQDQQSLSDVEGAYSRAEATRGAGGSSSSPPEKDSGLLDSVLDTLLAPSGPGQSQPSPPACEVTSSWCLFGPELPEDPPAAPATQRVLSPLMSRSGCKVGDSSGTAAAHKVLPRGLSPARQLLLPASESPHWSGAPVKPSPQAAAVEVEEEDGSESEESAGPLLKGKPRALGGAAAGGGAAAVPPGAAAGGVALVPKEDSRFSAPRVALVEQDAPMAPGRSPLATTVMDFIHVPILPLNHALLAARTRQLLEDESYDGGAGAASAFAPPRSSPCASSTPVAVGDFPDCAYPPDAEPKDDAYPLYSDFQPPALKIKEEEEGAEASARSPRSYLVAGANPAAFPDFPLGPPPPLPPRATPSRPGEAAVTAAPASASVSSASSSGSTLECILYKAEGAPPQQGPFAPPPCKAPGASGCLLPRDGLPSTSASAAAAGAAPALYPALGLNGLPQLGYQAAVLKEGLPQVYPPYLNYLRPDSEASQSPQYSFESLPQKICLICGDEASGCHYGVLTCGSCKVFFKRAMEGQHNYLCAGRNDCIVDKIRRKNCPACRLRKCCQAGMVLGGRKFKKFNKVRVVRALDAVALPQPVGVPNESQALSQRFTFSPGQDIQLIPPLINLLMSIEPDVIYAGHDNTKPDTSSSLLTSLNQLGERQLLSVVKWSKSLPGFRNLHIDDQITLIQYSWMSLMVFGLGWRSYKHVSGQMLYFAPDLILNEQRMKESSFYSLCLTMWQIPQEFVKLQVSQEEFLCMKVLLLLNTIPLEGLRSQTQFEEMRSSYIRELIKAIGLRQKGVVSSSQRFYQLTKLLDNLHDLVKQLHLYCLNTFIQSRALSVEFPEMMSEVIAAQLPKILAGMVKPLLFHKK
The data set can be described thus: Progesterone Receptor Whole Cell Competition Binding Assay Using T47D Cells. Conditions: 3H-progesterone 3 nM, read-out: Example 18B 'T47D PR whole cell binding Assay' IC50. As to the method: 1. Culture medium: 5% RC: phenol red free DMEM:F12 (1:1) (GIBCO, BRL) supplemented with 5% (v/v) charcoal stripped fetal bovine serum (not heat-inactivated), 100 U/ml penicillin, 100 ug/ml streptomycin, and 2 mM GlutaMax (GIBCO, BRL).
2. T47D cell culture: T47D cells are maintained in 10% RC media at 37° C. in a 5% CO2/humidified atmosphere and need to be split twice weekly for proper response. Cells are plated in 10% RC the day before binding assay at 50,000 cells per well in the white, clear bottom plates purchased through VWR or Perkin Elmer.
Cells plated the day prior to the assay in white clear bottom plates are used. A master compound plate is set up containing control and test compounds at 20× final desired concentration for the competition binding. A typical dose range of 20× concentrations are (in nM); 200,000; 20,000; 6000; 2000; 600; 200; 20; and 2. Final concentrations are then (in nM); 10,000; 1000; 300; 100; 30; 10; 1; 0.1.
Media on cells is replaced with 180 μl of 5% RC. […] Compounds are incubated for 3 hrs at 37° C. […] Following incubation, media is carefully removed and cells are washed 3× with 200 μl 5% RC each wash. 50 μl of liquid scintillation cocktail is added and the plates are shaken vigorously for a minimum of 15 minutes.
Square root-transformed data are used for analysis of variance and calculation of IC50 SAS software (SAS Institute, Inc.) is used for all the statistical analysis.

In data set [3] the test system is alkaline phosphatase activity in T47D cells. The data set can be described thus: T47D Cell Alkaline Phosphatase Assay. To be noted: Homo sapiens, read-out: Example 18A 'T47D Cell Alkaline Phosphatase Assay' Inhibition (%). It counts as cell-based.

With `CCC(C)c1c(OC)ccc2c1oc1ccc(C#N)cc12` (racemic) [Example 12, 6-sec-butyl-7-methoxydibenzo[b,d]furan-2-carbonitrile], the melting point was 80 to 82 °C. Besides, the IC50 in data set [1] (Homo sapiens, T47D, 24 h) turned out to be 18.5 nM. Moreover, the IC50 in data set [2] was found to be 59.7 nM. `CCC(C)c1c(O)ccc2c1oc1ccc(C#N)cc12` (racemic) [Example 13, 6-sec-butyl-7-hydroxydibenzo[b,d]furan-2-carbonitrile]: the melting point fell in the range of 206 to 207 °C. Moreover, the IC50 in data set [1] (Homo sapiens, T47D, 24 h) stood at 19 nM. For the same compound, the IC50 in data set [2] was 36.7 nM. Regarding `CCC(C)c1c(O)ccc2c1oc1ccc(C#N)cc12` (single isomer, unassigned; (+)) [Example 14, (+)-6-sec-butyl-7-hydroxydibenzo[b,d]furan-2-carbonitrile], the IC50 in data set [1] was determined as 22 nM; in data set [2], 41.5 nM.

Turning to `CCC(C)c1c(OC)ccc2c1oc1ccc(C#N)cc12` (single isomer, unassigned; (+)) [Example 16, (+)-6-sec-butyl-7-methoxydibenzo[b,d]furan-2-carbonitrile], the IC50 in data set [1] was 13 nM. As to `CCC(C)c1c(O)ccc2c1oc1ccc(C#N)cc12` (single isomer, unassigned; (-)) [Example 15, (−)-6-sec-butyl-7-hydroxydibenzo[b,d]furan-2-carbonitrile], the IC50 came out at 148 nM in data set [1] and 81.2 nM in data set [2]. For `CCC(C)c1c(OC)ccc2c1oc1ccc(C#N)cc12` (single isomer, unassigned; (-)) [Example 17, (−)-6-sec-butyl-7-methoxydibenzo[b,d]furan-2-carbonitrile], the IC50 in data set [1] is 30 nM. Regarding `COc1ccc2c(c1)oc1ccc(C#N)cc12` [Example 1, 7-methoxydibenzo[b,d]furan-2-carbonitrile], the IC50 in data set [1] (Homo sapiens, T47D, 24 h) is 259 nM. In turn, `N#Cc1ccc2oc3cc(O)ccc3c2c1` [Example 2, 7-hydroxydibenzo[b,d]furan-2-carbonitrile] yielded a melting point of 270 to 271 °C. Further, the IC50 in data set [1] (Homo sapiens, T47D, 24 h) came out at 534 nM. Take `N#Cc1ccc2oc3c(Br)c(O)c(F)cc3c2c1` [Example 3, 6-bromo-8-fluoro-7-hydroxydibenzo[b,d]furan-2-carbonitrile]: the melting point was 270 °C (dec.). Take `Cc1ccccc1-c1c(O)c(F)cc2c1oc1ccc(C#N)cc12` [Example 4, 8-fluoro-7-hydroxy-6-(2-methylphenyl)dibenzo[b,d]furan-2-carbonitrile]: the inhibition at 3 µM in data set [3] came out at 50%. On to `N#Cc1ccc2oc3cc(O)c(F)cc3c2c1` [Example 6, 8-fluoro-7-hydroxydibenzo[b,d]furan-2-carbonitrile], for which the melting point was 270 °C (dec.).

`COc1cc2oc3ccc(C#N)cc3c2cc1F` [Example 7, 8-fluoro-7-methoxydibenzo[b,d]furan-2-carbonitrile] displayed a melting point of 206 to 208 °C. For the same compound, the inhibition at 3 µM in data set [3] is 65%. For the compound `N#Cc1ccc2oc3c(-c4ccccc4F)c(O)c(F)cc3c2c1` [Example 8, 8-fluoro-6-(2-fluorophenyl)-7-hydroxydibenzo[b,d]furan-2-carbonitrile], the inhibition at 3 µM in data set [3] amounted to 40%. In the case of `COc1ccc2c(oc3ccc(C#N)cc32)c1C(C)C` [Example 9, 6-isopropyl-7-methoxydibenzo[b,d]furan-2-carbonitrile], the IC50 in data set [1] (Homo sapiens, T47D, 24 h) stood at 48 nM. With `CC(C)c1c(O)ccc2c1oc1ccc(C#N)cc12` [Example 10, 7-hydroxy-6-isopropyldibenzo[b,d]furan-2-carbonitrile], the melting point fell in the range of 180 to 182 °C. Also, in data set [1] (Homo sapiens, T47D, 24 h), the half-inhibitory concentration (IC50) was determined as 28 nM. Also, the concentration for half-maximal inhibition (IC50) in data set [2] came to 21.1 nM. Turning to `N#Cc1ccc2oc3c(C4CCCC4)c(O)ccc3c2c1` [Example 11, 6-cyclopentyl-7-hydroxydibenzo[b,d]furan-2-carbonitrile], the IC50 in data set [1] (Homo sapiens, T47D, 24 h) came to 50 nM.
